Data: the supplement of paper PMC10307832

Experiments:
Assay in all cases: relative viability (nuclei count vs DMSO), 5 days (fraction); higher = more cells survive
[1] = compound: COc1cc(Nc2ncc(F)c(Nc3ccc4c(n3)NC(=O)C(C)(C)O4)n2)cc(OC)c1OC [R406] + Nc1ncn([C@H]2C[C@H](O)[C@@H](CO)O2)c(=O)n1 [Decitabine] (partner 2 µM)
How it was run: (§1)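 Cells from lung cancer lines were seeded into 1536-well plates and, one day later, dosed by pin tool. Treatments were either a single drug or a fixed dose of an anchor drug with five library-drug doses (not always all listed) in √10 steps. After 5 days, nuclei were stained in a one-step fixation (final 0.05% Triton X-100, 1% formaldehyde, 1 ug/ml Hoechst) and counted on 4× images, and relative viability is the treated-to-vehicle nuclei ratio, as the median of duplicate plates.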

[2] = compound: COc1cc(Nc2ncc(F)c(Nc3ccc4c(n3)NC(=O)C(C)(C)O4)n2)cc(OC)c1OC [R406] + C[C@@H](Oc1cc(-c2cnn(C3CCNCC3)c2)cnc1N)c1c(Cl)ccc(F)c1Cl [Crizotinib] (partner 1 µM)
How it was run: as §1

[3] = compound: O=C(/C=C/c1cccnc1)NCCCCC1CCN(C(=O)c2ccccc2)CC1 [Daporinad] + Cc1cc(Nc2cc(N3CCN(C)CC3)nc(Sc3ccc(NC(=O)C4CC4)cc3)n2)n[nH]1 [Tozasertib] (partner 0.1 µM)
How it was run: as §1

[4] = compound: O=C(/C=C/c1cccnc1)NCCCCC1CCN(C(=O)c2ccccc2)CC1 [Daporinad] + O=C(CCCCCCC(=O)Nc1ccccc1)NO [Vorinostat] (partner 1 µM)
How it was run: as §1

| Cell Line | relative viability ([1]; first compound 0.08 µM) | relative viability ([1]; first compound 0.253 µM) | relative viability ([1]; first compound 0.8 µM) | relative viability ([1]; first compound 2.53 µM) | relative viability ([1]; first compound 8 µM) | relative viability ([2]; first compound 0.08 µM) | relative viability ([2]; first compound 0.253 µM) | relative viability ([2]; first compound 0.8 µM) | relative viability ([2]; first compound 2.53 µM) | relative viability ([2]; first compound 8 µM) | relative viability ([3]; first compound 0.0005 µM) | relative viability ([3]; first compound 0.001581 µM) | relative viability ([3]; first compound 0.005 µM) | relative viability ([3]; first compound 0.01581 µM) | relative viability ([4]; first compound 0.0005 µM) | relative viability ([4]; first compound 0.001581 µM) | relative viability ([4]; first compound 0.005 µM) | relative viability ([4]; first compound 0.01581 µM) |
| --- | --- | --- | --- | --- | --- | --- | --- | --- | --- | --- | --- | --- | --- | --- | --- | --- | --- | --- |
| HCC-44 | 0.924 | 1.04 | 0.856 | 1 | 1.05 | 0.771 | 0.963 | 0.806 | 0.721 | 0.341 | 0.881 | 1.03 | 1.16 | 1.05 | 0.928 | 1.18 | 1.19 | 1.03 |
| HCC-827 | 0.323 | 0.412 | 0.401 | 0.219 | 0.268 | 0.975 | 0.952 | 0.899 | 0.841 | 0.409 | 0.428 | 0.445 | 0.513 | 0.446 | 0.929 | 0.871 | 0.913 | 0.906 |
| NCI-H2342 | 0.681 | 0.768 | 0.759 | 0.668 | 0.691 |  |  |  |  |  | 0.53 | 0.524 | 0.51 | 0.445 | 0.806 | 0.791 | 0.695 | 0.815 |
| NCI-H2347 | 0.666 | 0.645 | 0.594 | 0.631 | 0.562 | 0.588 | 0.538 | 0.889 | 0.556 | 0.487 | 0.597 | 0.636 | 0.504 | 0.596 | 0.586 | 0.754 | 0.601 | 0.616 |
| PC-3 [JPC-3] | 0.912 | 0.898 | 0.974 | 0.747 | 0.62 | 1.04 | 1 | 1.02 | 0.98 | 0.885 | 0.864 | 0.896 | 0.938 | 0.952 | 0.604 | 0.818 | 1.06 | 0.921 |
| NCI-H1651 | 0.498 | 0.75 | 0.654 | 0.531 | 0.6 | 0.869 | 0.914 | 0.853 | 0.815 | 0.929 | 0.615 | 0.814 | 0.601 | 0.663 | 0.613 | 0.594 | 0.695 | 0.529 |
| HARA | 0.414 | 0.597 | 0.586 | 0.584 | 0.178 | 0.902 | 1.06 | 1.13 | 1.09 | 0.376 | 0.117 | 0.105 | 0.109 | 0.0561 | 0.39 | 0.527 | 0.518 | 0.663 |
| NCI-H1650 | 0.475 | 0.407 | 0.359 | 0.413 | 0.411 | 1.05 | 1.09 | 0.961 | 0.327 | 0.139 | 0.387 | 0.44 | 0.461 | 0.275 | 0.518 | 0.746 | 0.547 | 0.322 |
| NCI-H1395 | 0.685 | 0.782 | 0.72 | 0.572 | 0.628 |  |  |  |  |  | 0.7 | 0.764 | 0.771 | 0.839 | 0.627 | 0.795 | 0.94 | 0.794 |
| NCI-H441 | 0.231 | 0.248 | 0.276 | 0.217 | 0.24 | 0.72 | 0.975 | 0.846 | 0.599 | 0.461 | 0.512 | 0.646 | 0.718 | 0.668 | 0.913 | 0.677 | 0.811 | 0.778 |
| LU99A | 0.972 | 0.87 | 0.888 | 0.61 | 0.591 | 0.474 | 0.553 | 0.607 |  | 0.218 | 0.26 | 0.254 | 0.29 | 0.249 | 0.499 | 0.594 | 0.545 | 0.571 |
| NCI-H1355 | 0.335 | 0.348 | 0.377 | 0.345 | 0.367 | 1.09 | 1.14 | 1.25 | 0.909 | 0.687 | 0.519 | 0.558 | 0.58 | 0.631 | 0.652 | 0.738 | 0.615 | 0.532 |
| HCC-78 | 0.566 | 0.785 | 0.702 | 0.749 | 0.61 | 0.356 | 0.318 | 0.398 | 0.302 | 0.269 | 0.417 |  | 0.357 | 0.637 | 0.368 | 0.414 | 0.345 | 0.5 |
| NCI-H1563 |  |  |  |  |  | 0.791 | 0.868 | 0.891 | 0.913 | 0.619 |  |  |  |  |  |  |  |  |
| HCC-15 | 0.636 | 0.788 | 0.687 | 0.603 | 0.389 | 0.837 | 1.01 | 0.834 |  | 0.635 | 0.476 | 0.366 | 0.749 | 0.484 | 0.782 | 0.959 | 0.889 | 0.911 |
| EKVX | 0.341 | 0.365 | 0.316 | 0.336 | 0.354 | 0.949 | 0.986 | 1.09 | 0.867 | 0.806 | 0.392 | 0.457 | 0.301 | 0.396 | 0.621 | 0.825 | 0.841 | 0.851 |
| NCI-H2087 | 0.24 | 0.264 | 0.301 | 0.221 | 0.152 | 0.825 | 1.26 | 0.899 | 0.983 | 0.936 | 0.262 | 0.229 | 0.339 | 0.221 | 0.89 | 0.645 | 0.576 | 0.792 |
| LK-2 | 0.227 | 0.469 | 0.379 | 0.23 | 0.21 | 0.275 | 0.224 | 0.178 | 0.255 | 0.259 | 0.17 | 0.168 | 0.194 | 0.169 | 0.28 | 0.331 | 0.307 | 0.256 |
| NCI-H1437 | 0.552 | 0.623 | 0.567 | 0.665 | 0.472 | 0.944 | 1.13 | 0.971 | 0.864 | 0.716 | 0.49 | 0.401 | 0.405 | 0.4 | 0.759 | 0.831 | 0.893 | 0.718 |
